Assay results taken from patent US12344623B2, “Thiazolopyridine derivatives as adenosine receptor antagonists” (Merck Patent GmbH, priority 2019, dated 2025).
Where two headings read alike, the source gives them in different places.

What was measured:
Assay type in all cases: cell-based
[1] = target: T1, human A2B receptor (Homo sapiens, UniProt P29275); test: Functional A2B receptor activity, recombinant HEK293 cells, cAMP (HTRF), agonist NECA; conditions: read-out: Functional A2B receptor activity, HEK293, cAMP, IC50
T1 construct: expressed in transfected cells; host or cells: HEK293
T1 sequence (P29275 1-332): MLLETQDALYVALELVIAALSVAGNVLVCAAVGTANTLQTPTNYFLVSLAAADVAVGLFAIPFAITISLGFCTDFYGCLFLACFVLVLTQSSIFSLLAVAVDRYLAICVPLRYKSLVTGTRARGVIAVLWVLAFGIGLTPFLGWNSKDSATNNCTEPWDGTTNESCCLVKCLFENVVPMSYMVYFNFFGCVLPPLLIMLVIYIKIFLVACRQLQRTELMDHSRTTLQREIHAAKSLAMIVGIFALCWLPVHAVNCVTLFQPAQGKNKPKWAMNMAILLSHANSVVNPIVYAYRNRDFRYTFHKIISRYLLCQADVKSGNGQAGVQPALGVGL
Method in brief: (§1)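 Intracellular cAMP, the adenosine receptor second messenger, is measured by HTRF following 30 min co-incubation with forskolin, agonist and test compound. Normalization uses DMSO as the neutral control and an inhibitor as the reference control. Fitted curves yield the values.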

[2] = target: T2, human A3 receptor (Homo sapiens, UniProt P0DMS8); test: Functional A3 receptor activity, recombinant CHO cells, cAMP (HTRF), forskolin, agonist IB-MECA; conditions: recombinant CHO cells, forskolin, agonist IB-MECA, read-out: Functional A3 receptor activity, CHO, cAMP, IC50
T2 construct: expressed in transfected cells; host or cells: CHO
T2 sequence (P0DMS8 1-318): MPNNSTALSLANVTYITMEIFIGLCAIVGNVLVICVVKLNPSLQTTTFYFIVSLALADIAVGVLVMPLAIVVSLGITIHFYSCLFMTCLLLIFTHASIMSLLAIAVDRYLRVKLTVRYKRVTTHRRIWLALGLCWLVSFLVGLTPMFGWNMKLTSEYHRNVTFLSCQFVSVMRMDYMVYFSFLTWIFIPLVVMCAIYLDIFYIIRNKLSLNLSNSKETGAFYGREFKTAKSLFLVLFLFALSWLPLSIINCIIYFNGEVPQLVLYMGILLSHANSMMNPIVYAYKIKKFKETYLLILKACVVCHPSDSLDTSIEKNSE
Method in brief: (§2)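 Normalized HTRF cAMP signals (inhibitor and DMSO controls as references) were curve-fitted; assays used forskolin-stimulated CHO cells with A1 or A3, agonist CPA or IB-MECA respectively, 30 min compound incubation.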

[3] = target: T3, human A1 receptor (Homo sapiens, UniProt P30542); test: Functional A1 receptor activity, recombinant CHO cells, cAMP (HTRF), forskolin, agonist CPA; conditions: recombinant CHO cells, forskolin, agonist CPA, read-out: Functional A1 receptor activity, CHO, cAMP, IC50
T3 construct: expressed in transfected cells; host or cells: CHO
T3 sequence (P30542 1-326): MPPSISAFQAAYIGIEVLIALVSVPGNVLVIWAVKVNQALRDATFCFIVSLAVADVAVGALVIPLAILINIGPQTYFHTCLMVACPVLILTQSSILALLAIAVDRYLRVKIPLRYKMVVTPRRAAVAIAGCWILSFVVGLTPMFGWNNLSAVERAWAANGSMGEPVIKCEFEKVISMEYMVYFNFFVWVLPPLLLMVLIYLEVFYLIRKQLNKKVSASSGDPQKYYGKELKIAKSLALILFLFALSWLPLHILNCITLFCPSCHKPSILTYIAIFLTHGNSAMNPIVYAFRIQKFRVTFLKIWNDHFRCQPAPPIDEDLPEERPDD
Method in brief: as §2

[4] = target: human A2A receptor (Homo sapiens, UniProt P29274); test: Functional A2A receptor activity, recombinant HEK293 cells, cAMP (HTRF), agonist NECA; parameters: expressed in transfected cells; host or cells: HEK293; conditions: read-out: Functional A2A receptor activity, HEK293, cAMP, IC50
Method in brief: as §1

Sequence of human A2A receptor (P29274 whole entry): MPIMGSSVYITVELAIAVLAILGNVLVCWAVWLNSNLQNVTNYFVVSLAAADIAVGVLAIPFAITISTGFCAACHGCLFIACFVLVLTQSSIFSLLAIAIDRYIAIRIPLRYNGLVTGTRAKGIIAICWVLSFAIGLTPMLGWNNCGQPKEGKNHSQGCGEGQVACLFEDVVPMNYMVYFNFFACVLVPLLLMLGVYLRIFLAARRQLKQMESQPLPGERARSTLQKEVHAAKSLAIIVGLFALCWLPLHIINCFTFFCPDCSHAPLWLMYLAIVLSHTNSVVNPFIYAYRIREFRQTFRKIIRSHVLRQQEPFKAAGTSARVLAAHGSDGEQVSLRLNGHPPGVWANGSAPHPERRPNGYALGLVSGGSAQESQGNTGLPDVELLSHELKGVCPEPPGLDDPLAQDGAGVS

| IC50 [1] | IC50 [2] | IC50 [3] | IC50 [4] | IC50 ([2]; cAMP) | IC50 ([3]; cAMP) | Compound |
| --- | --- | --- | --- | --- | --- | --- |
| < 100 nM | > 1000 nM | > 1000 nM | < 10 nM | – | – | COc1ncc(C2=CCOCC2)c2sc(NC(=O)N3CC[C@]4(CCCNC4)C3)nc12 [Compound 122, (S)-2,7-Diaza-spiro[4.5]decane-2-carboxylic acid [7-(3,6-dihydro-2H-pyran-4-yl)-4-methoxy-thiazolo[4,5-c]pyridin-2-yl]-amide] |
| < 10 nM | > 1000 nM | > 1000 nM | < 10 nM | – | – | COc1ncc(-c2ccnc(N)c2)c2sc(NC(=O)N3CCC4(CCOCC4)C3)nc12 [Compound 124, 8-Oxa-2-aza-spiro[4.5]decane-2-carboxylic acid [7-(2-amino-pyridin-4-yl)-4-methoxy-thiazolo[4,5-c]pyridin-2-yl]-amide] |
| < 10 nM | > 1000 nM | < 1000 nM | < 10 nM | – | – | COc1ncc(-c2ccc(F)c(O)c2)c2sc(NC(=O)N3CCC4(CCOCC4)C3)nc12 [Compound 149, 8-Oxa-2-aza-spiro[4.5]decane-2-carboxylic acid [7-(4-fluoro-3-hydroxy-phenyl)-4-methoxy-thiazolo[4,5-c]pyridin-2-yl]-amide] |
| < 100 nM | > 1000 nM | > 1000 nM | < 10 nM | – | – | COc1ncc(-c2cc(O)ccc2F)c2sc(NC(=O)N3CCC4(CCOCC4)C3)nc12 [Compound 150, 8-Oxa-2-aza-spiro[4.5]decane-2-carboxylic acid [7-(2-fluoro-5-hydroxy-phenyl)-4-methoxy-thiazolo[4,5-c]pyridin-2-yl]-amide] |
| < 10 nM | > 1000 nM | < 1000 nM | < 10 nM | – | – | COc1ncc(-c2cccc(O)c2)c2sc(NC(=O)N3CCC4(CCOCC4)C3)nc12 [Compound 153, 8-Oxa-2-aza-spiro[4.5]decane-2-carboxylic acid [7-(3-hydroxy-phenyl)-4-methoxy-thiazolo[4,5-c]pyridin-2-yl]-amide] |
| < 100 nM | > 1000 nM | > 1000 nM | < 100 nM | – | – | COc1ncc(I)c2sc(NC(=O)N3CCC4(CCOCC4)C3)nc12 [Compound 171, 8-Oxa-2-aza-spiro[4.5]decane-2-carboxylic acid (7-iodo-4-methoxy-thiazolo[4,5-c]pyridin-2-yl)-amide] |
| > 1000 nM | – | – | < 100 nM | > 1000 nM | > 1000 nM | COc1ccc(-c2ccccc2)c2sc(NC(=O)NCCN3CCCCC3)nc12 [drawing 187, reference compound] |
| < 1000 nM | – | – | < 10 nM | > 1000 nM | > 1000 nM | COc1cnc(N2CCOCC2)c2sc(NC(=O)N3CCC(CO)CC3)nc12 [drawing 188, reference compound] |
| < 1000 nM | – | – | < 10 nM | > 1000 nM | > 1000 nM | COc1cnc(N2CCOCC2)c2sc(NC(=O)N3CCC4(CCCO4)CC3)nc12 [drawing 189, reference compound] |
| < 1000 nM | – | – | < 100 nM | < 1000 nM | > 1000 nM | COc1cnc(C2CCOCC2)c2sc(NC(=O)N3CCC(O)CC3)nc12 [drawing 190, reference compound] |
| < 1000 nM | – | – | < 10 nM | < 1000 nM | > 1000 nM | COc1ccc(N2CCOCC2)c2sc(NC(=O)N3CCCCC3)nc12 [drawing 191, reference compound] |

The remaining lines, values behind:

| Compound | IC50 [1] | IC50 [2] | IC50 [3] | IC50 [4] | IC50 ([2]; cAMP) | IC50 ([3]; cAMP) |
| --- | --- | --- | --- | --- | --- | --- |
| COc1ncc(-c2ccccc2)c2sc(NC(=O)N3CCC(C(=O)N(C)C)CC3)nc12 [Compound 123, Piperidine-1,4-dicarboxylic acid 4-dimethylamide 1-[(4-methoxy-7-phenyl-thiazolo[4,5-c]pyridin-2-yl)-amide]] | < 100 nM | > 1000 nM | > 1000 nM | < 10 nM | – | – |
| COc1ncc(C2=CCOCC2)c2sc(NC(=O)c3ccc(C(=O)N4CCN(C)CC4)cc3)nc12 [Compound 125, N-[7-(3,6-Dihydro-2H-pyran-4-yl)-4-methoxy-thiazolo[4,5-c]pyridin-2-yl]-4-(4-methyl-piperazine-1-carbonyl)-benzamide] | < 10 nM | > 1000 nM | < 1000 nM | < 10 nM | – | – |
| COc1ncc(C2=CCOCC2)c2sc(NC(=O)c3ccc(C(=O)N4CCC(C)(O)CC4)cc3)nc12 [Compound 129, N-[7-(3,6-Dihydro-2H-pyran-4-yl)-4-methoxy-thiazolo[4,5-c]pyridin-2-yl]-4-(4-hydroxy-4-methyl-piperidine-1-carbonyl)-benzamide] | < 100 nM | > 1000 nM | < 1000 nM | < 10 nM | – | – |
| COc1ncc(C2=CCOCC2)c2sc(NC(=O)c3cnc4ccccn34)nc12 [Compound 135, Imidazo[1,2-a]pyridine-3-carboxylic acid [7-(3,6-dihydro-2H-pyran-4-yl)-4-methoxy-thiazolo[4,5-c]pyridin-2-yl]-amide] | < 10 nM | < 1000 nM | < 1000 nM | < 10 nM | – | – |
| COc1ncc(C2=CCOCC2)c2sc(NC(=O)c3c[nH]c(-c4cccnc4)n3)nc12 [Compound 140, 2-Pyridin-3-yl-1H-imidazole-4-carboxylic acid [7-(3,6-dihydro-2H-pyran-4-yl)-4-methoxy-thiazolo[4,5-c]pyridin-2-yl]-amide] | < 100 nM | > 1000 nM | < 1000 nM | < 10 nM | – | – |
| COc1ncc(C2=CCOCC2)c2sc(NC(=O)c3cnn(-c4ccccc4)c3)nc12 [Compound 156, 1-Phenyl-1H-pyrazole-4-carboxylic acid [7-(3,6-dihydro-2H-pyran-4-yl)-4-methoxy-thiazolo[4,5-c]pyridin-2-yl]-amide] | < 10 nM | > 1000 nM | < 1000 nM | < 10 nM | – | – |
| COc1ncc(C2=CCOCC2)c2sc(NC(=O)c3cnn(-c4ccncc4)c3)nc12 [Compound 157, 1-Pyridin-4-yl-1H-pyrazole-4-carboxylic acid [7-(3,6-dihydro-2H-pyran-4-yl)-4-methoxy-thiazolo[4,5-c]pyridin-2-yl]-amide] | < 10 nM | > 1000 nM | < 1000 nM | < 10 nM | – | – |
| COc1ncc(-c2cccc(Oc3cccnc3)c2)c2sc(NC(=O)N3CCC4(CCOCC4)C3)nc12 [Compound 160, 8-Oxa-2-aza-spiro[4.5]decane-2-carboxylic acid {4-methoxy-7-[3-(pyridin-3-yloxy)-phenyl]-thiazolo[4,5-c]pyridin-2-yl}-amide] | < 10 nM | > 1000 nM | < 1000 nM | < 10 nM | – | – |
| COc1ncc(C2=CCOCC2)c2sc(NC(=O)c3c[nH]c(-c4ccccn4)n3)nc12 [Compound 162, 2-Pyridin-2-yl-1H-imidazole-4-carboxylic acid [7-(3,6-dihydro-2H-pyran-4-yl)-4-methoxy-thiazolo[4,5-c]pyridin-2-yl]-amide] | < 10 nM | > 1000 nM | < 1000 nM | < 10 nM | – | – |
| COc1ncc(-c2cccc(NCc3cocn3)c2)c2sc(NC(=O)N3CCC4(CCOCC4)C3)nc12 [Compound 166, 8-Oxa-2-aza-spiro[4.5]decane-2-carboxylic acid (4-methoxy-7-{3-[(oxazol-4-ylmethyl)-amino]-phenyl}-thiazolo[4,5-c]pyridin-2-yl)-amide] | < 100 nM | > 1000 nM | > 1000 nM | < 10 nM | – | – |
| COc1ncc([C@@H]2COCCO2)c2sc(NC(=O)c3ccc(C(=O)O)cc3)nc12 [Compound 169, N-((R)-7-[1,4]Dioxan-2-yl-4-methoxy-thiazolo[4,5-c]pyridin-2-yl)-terephthalamic acid] | < 100 nM | > 1000 nM | > 1000 nM | < 10 nM | – | – |
